Consider 21 molecules from patent publication US5756505A, “N-acylpiperazine derivative, antibacterial drug and anti-ulcer drug” (Shiseido Co., Ltd., priority 1995, dated 1998).

In one data set the test system is stress ulcer formation. The experiment in a line: WIS: Restraint and Water Immersion Stress-Induced Ulcer Inhibition Test. The conditions noted are these: rat; for WIS: ulcer formation inhibitory rate: 100 mg/kg oral, 7 hours stress; for anti-ulcer effect (in words): in vivo. It is filed as in vivo, rat (male Crj:SD or Slc:SD). As for the experimental part: WIS: Restraint and Water Immersion Stress-Induced Ulcer Inhibition Test
The degree of inhibition of the stress ulcer formation is tested.
Male Crj:SDor Slc:SD rats (6 to 7-week-old) were fasted overnight, but allowed free access to water. Each group has 5 to 8 of these rats. The sample compound was dissolved or suspended in an aqueous solution of 0.3% sodium carboxymethylcellulose or 0.05% Tween 80 and then was orally administered (100 mg/10 ml/kg). To a control group, the vehicle was administered. 10 minuts later, the rats were placed in a stress cage and immersed to the level of xipfoid process in a water bath (21° C.) for 7 hours. At the end of the stress, the rats were sacrificed by inhalation of ether or carbon dioxide. Then, the stomach of each was removed, inflated by injecting 10 ml of 5% formalin neutral buffer solution, and immersed in 1% formalin neutral buffer solution for 30 minutes or more to be fixed. The stomach was incised along the greater curvature and then the length of each erosion in the glandular portion was determined under dissecting microscope. The sum of the length of erosions per stomach was defined as ulcer index (UI).
The effect obtained when 100 mg/kg of the sample compound had been administered was expressed as ulcer formation inhibitory rate (%) as follows:
ulcer formation inhibitory rate (%)=[1-(UI in sample group/UI in control group)]×100

The subject of the next data set is gastric mucosa. The experiment in a line: PD: Gastric Mucosal Integrity Test. In kind it is in vivo, rat (male Crj:SD). The conditions noted are these: rat, 100 mg/kg into ex vivo chamber, 60 minutes. As for the experimental part:
PD: Gastric Mucosal Integrity Test
In this case, since the sample compound has a necrotizing effect, it is inappropriate as an anti-ulcer medicament.
Therefore, the gastric mucosal potential difference (PD), which reflects the integrity of the gastric mucosa, is measured so as to confirm that the sample compound has no damasing effect on gastric mucosa, which is toxicity at gastric mucosal level.
Male Crj:SD rats (7 to 8-week-old) was fasted overnight, but allowed free access to water, and then, under urethane anesthesia (1.25 g/kg, i.p.), fixed to a cork board on its back. The abdomen of each rat was incised, and a small incision was made in the forestomach. Then, the inside of the stomach was washed with physiological saline heated at 37° C. From the forestomach, along the greater curvature thereof, the stomach was incised without damaging blood vessels. After the height of the cork board was adjusted on a jack, the stomach was mounted on ex vivo chamber. The area of the gastric mucosa exposed to the inside of this chamber was 2.5 cm^2. The inside of the chamber was perfused with physiological saline warmed at 37° C. by micro tube pump. By using an agar bridge containing 3M KCl, the potential difference between the chamber and the abdominal cavity was measured by a PD meter. Here, the rectal temperature was measured to control the body temperature during the experiment. After the PD was sufficiently stabilized, the perfusate was stopped and then 100 mg/10 ml/kg of the sample compound dissolved or suspended in an aqueous solution of 0.5% sodium carboxymethyl cellulose or 0.05% Tween 80 were administered into the chamber, while PD was recorded for 60 minutes. To a control, the vehicle was administered.
The change in PD during 60 minutes after the administration of 100 mg/kg of the sample compound was collectively studied and, with reference to the positive control, classified into 5 levels as follows:
5: Same as the control with no recognizable damage at all.
3: Though a weak decrease in PD and a possibility of a weak mucosal damage is recognized, there is no substantial problem.
2: Medium degree of decrease in PD is found and a mucosal damage is recognized.
1: Heavy degree of decrease in PD is found and a remarkable mucosal damage is recognized.

Another data set has as its system Helicobacter pyroli. The experiment in a line: AHP: Antibacterial Activity Test Against Helicobacter pyroli. It is filed as cell-based, Helicobacter pyroli NCTC 11637. The conditions noted are these: for MIC: Helicobacter, NCTC11637, 168 h, H. pyroli NCTC 11637, agar dilution, 7 days, read-out: AHP: minimum inhibitory concentration (MIC). The method, then: AHP: Antibacterial […] Against Helicobacter pyroli i)Meaning The minimum inhibitory concentration (MIC) against Helicobacter pyroli (microaerophilic gram-negative bacterium which is supposed to deeply involve in pathogenesis, relapse, and recrudescence of ulcer, referred to as "HP" in the following) is measured so as to find out compounds which have antimicrobial activity against Helicobacter pyroli. ii)Method MICs were determined by the agar dilution method. […] Grown colonies were transfered to the same plate and cultured for 3 days under the same condition. […] A 1,000 μg/ml solution of the sample compound containing DMSO not more than 25% was […] diluted 2-fold in sterile purified water. 100 μl volume from each dilution was mixed thoroughly with 900 μl of brucella agar supplemented with 5% horse blood and solidified in a 24 well micro plate. 10 μl of the bacterial suspension (about 10^3 cfu) was inoculated on this plate and cultured for 7 days under the same condition as that of preculture.
Background: Agar dilution tests growth on a series of plates holding different concentrations.

In brackets after ≈: the same amount, converted by molar mass.

For the molecule `CC(C)CN1CCN(C(=O)c2ccc(OCc3ccc(F)cc3)cc2)CC1.Cl` [Example 2, 1-[4-(4-fluorobenzyloxy)benzoyl]-4-isobutylpiperazine hydrochloride], the “WIS: ulcer formation inhibitory rate” value with stress ulcer formation was 79%. For the same molecule, in the data set on gastric mucosa, the “PD: change in gastric mucosal potential difference, level” value was 2.

With `CC(C)CN1CCN(C(=O)c2ccc(OCc3ccccc3)cc2)CC1` [Example 3, 1-(4-benzyloxybenzoyl)-4-isobutylpiperazine], the “WIS: ulcer formation inhibitory rate” value in the data set on stress ulcer formation worked out at 69%. Moreover, the “PD: change in gastric mucosal potential difference, level” value in the data set on gastric mucosa worked out at 5.

On to `C=C(C)Cc1cc(C(=O)N2CCN(CC(C)C)CC2)ccc1OCc1ccc(F)cc1.Cl` [Example 4, 1-[4-(4-fluorobenzyloxy)-3-methallylbenzoyl]-4-isobutylpiperazine hydrochloride], for which the “WIS: ulcer formation inhibitory rate” value in the data set with stress ulcer formation worked out at 65%. Moreover, the MIC with Helicobacter pyroli worked out at 25 µg/mL.

Consider `CC(C)CN1CCN(C(=O)c2ccc(OCc3ccc(F)cc3)cc2)CC1` [Example 5, 1-[4-(4-fluorobenzyloxy)benzoyl]-4-isobutylpiperazine], for which the “WIS: ulcer formation inhibitory rate” value in the data set with stress ulcer formation amounted to 59%. The MIC in the data set with Helicobacter pyroli was determined as 12.5 µg/mL (≈ 33.7 µM).

Consider `CC(C)Cc1cc(C(=O)N2CCN(C(=O)C(C)C)CC2)ccc1OCc1ccc(F)cc1` [Example 6, 1-[4-(4-fluorobenzyloxy)-3-isobutylbenzoyl]-4-isobutyrylpiperazine], for which, in the data set on stress ulcer formation, the “WIS: ulcer formation inhibitory rate” value stood at 56% and the “anti-ulcer effect (in words)” value is on record as “sufficient effects”. Also, in the data set on Helicobacter pyroli, the MIC was < 3.13 µg/mL.

With `CC(C)CN1CCN(C(=O)c2ccc(OCc3ccc(F)cc3)c([N+](=O)[O-])c2)CC1.Cl` [Example 8, 1-[4-(4-fluorobenzyloxy)-3-nitrobenzoyl]-4-isobutylpiperazine hydrochloride], the “WIS: ulcer formation inhibitory rate” value with stress ulcer formation was found to be 35%. Also, the “PD: change in gastric mucosal potential difference, level” value with gastric mucosa is on record as 2.

Consider `CC(C)Cc1cc(C(=O)N2CCN(CCO)CC2)ccc1OCc1ccc(F)cc1` [Example 9, 1-[4-(4-fluorobenzyloxy)-3-isobutylbenzoyl]-4-(2-hydroxyethyl)piperazine], for which, in the data set with stress ulcer formation, the “WIS: ulcer formation inhibitory rate” value is 88% and the “anti-ulcer effect (in words)” value is “sufficient effects”. The “PD: change in gastric mucosal potential difference, level” value in the data set with gastric mucosa turned out to be 2.

With `Cc1cccc(COc2ccc(C(=O)N3CCN(CC(C)C)CC3)cc2CC(C)C)c1F.Cl` [Example 12, 1-[4-(2-fluoro-3-methylbenzyloxy)-3-isobutylbenzoyl]-4-isobutylpiperazine hydrochloride], in the data set with stress ulcer formation, the “WIS: ulcer formation inhibitory rate” value is on record as 83%. For the same molecule, the “PD: change in gastric mucosal potential difference, level” value with gastric mucosa amounted to 2.

Regarding `CC(C)Cc1cc(C(=O)N2CCN(CC(C)C)CC2)ccc1OCc1ccc([N+](=O)[O-])cc1.Cl` [Example 13, 1-isobutyl-4-[3-isobutyl-4-(4-nitrobenzyloxy)benzoyl]piperazine hydrochloride], in the data set on stress ulcer formation, the “WIS: ulcer formation inhibitory rate” value turned out to be 77%. In addition, in the data set on Helicobacter pyroli, the MIC was found to be 12.5 µg/mL. For the same molecule, the “PD: change in gastric mucosal potential difference, level” value with gastric mucosa was determined as 2.

For the molecule `COc1ccc(COc2ccc(C(=O)N3CCN(CC(C)C)CC3)cc2CC(C)C)cc1` [Example 14, 1-isobutyl-4-[3-isobutyl-4-(4-methoxybenzyloxy)benzoyl]piperazine], the “WIS: ulcer formation inhibitory rate” value in the data set with stress ulcer formation worked out at 76%. Further, the MIC in the data set on Helicobacter pyroli came to 25 µg/mL (≈ 57 µM).

Turning to `CC(C)Cc1cc(CC(=O)N2CCN(CC(C)C)CC2)ccc1OCc1ccccc1` [Example 15, 1-(4-benzyloxy-3-isobutylphenylacetyl)-4-isobutylpiperazine], in the data set with stress ulcer formation, the “WIS: ulcer formation inhibitory rate” value is on record as 71% and the “anti-ulcer effect (in words)” value is “sufficient effects were observed”.

Turning to `CC(C)Cc1cc(C(=O)N2CCN(CC(C)C)CC2)ccc1OCc1ccccc1` [Example 16, 1-(4-benzyloxy-3-isobutylbenzoyl)-4-isobutylpiperazine], the “WIS: ulcer formation inhibitory rate” value in the data set with stress ulcer formation amounted to 72%. The MIC with Helicobacter pyroli worked out at 50 µg/mL (≈ 122 µM). In the data set on gastric mucosa, the “PD: change in gastric mucosal potential difference, level” value was found to be 5.

For `CC(C)Cc1cc(C(=O)N2CCN(CC(C)C)CC2)ccc1OCc1ccc(Cl)cc1` [Example 17, 1-[4-(4-chlorobenzyloxy)-3-isobutylbenzoyl]-4-isobutylpiperazine], the “WIS: ulcer formation inhibitory rate” value with stress ulcer formation was 66%. In addition, the MIC with Helicobacter pyroli turned out to be 12.5 µg/mL (≈ 28.2 µM). For the same molecule, the “PD: change in gastric mucosal potential difference, level” value in the data set on gastric mucosa stood at 4.

In the case of `CC(C)Cc1cc(C(=O)N2CCN(CC(C)C)CC2)ccc1OCc1ccccc1F` [Example 18, 1-[4-(2-fluorobenzyloxy)-3-isobutylbenzoyl]-4-isobutylpiperazine], in the data set with stress ulcer formation, the “WIS: ulcer formation inhibitory rate” value was determined as 64%. Further, the MIC in the data set on Helicobacter pyroli came out at 12.5 µg/mL (≈ 29.3 µM). In the data set on gastric mucosa, the “PD: change in gastric mucosal potential difference, level” value was 3.

As to `CC(C)Cc1cc(C(=O)N2CCN(CC(C)C)CC2)ccc1OCc1ccccc1F.Cl` [Example 19, 1-[4-(2-fluorobenzyloxy)-3-isobutylbenzoyl]-4-isobutylpiperazine hydrochloride], the “WIS: ulcer formation inhibitory rate” value with stress ulcer formation came to 64%. Further, the “PD: change in gastric mucosal potential difference, level” value in the data set with gastric mucosa is given as 2.

As to `CC(C)Cc1cc(CN2CCN(CC(C)C)CC2)ccc1OCc1ccc(F)cc1.Cl.Cl` [Example 20, 1-[4-(4-fluorobenzyloxy)-3-isobutylbenzyl]-4-isobutylpiperazine dihydrochloride], in the data set on stress ulcer formation, the “WIS: ulcer formation inhibitory rate” value turned out to be 82% and the “anti-ulcer effect (in words)” value is recorded as “effects were observed”. For the same molecule, the “PD: change in gastric mucosal potential difference, level” value in the data set with gastric mucosa came to 2.

On to `CC(C)Cc1cc(C(=O)N2CCN(CC(C)C)CC2)ccc1OCc1ccc(F)cc1` [Example 21, 1-[4-(4-fluorobenzyloxy)-3-isobutylbenzoyl]-4-isobutylpiperazine], for which, in the data set on stress ulcer formation, the “WIS: ulcer formation inhibitory rate” value is recorded as 84% and the “anti-ulcer effect (in words)” value is on record as “improved”. In the data set on Helicobacter pyroli, the “antibacterial activity against Helicobacter pyroli (in words)” value is listed as “improved”. Besides, the “PD: change in gastric mucosal potential difference, level” value with gastric mucosa amounted to 5.

With `CC(C)Cc1cc(C(=O)N2CCN(CC(C)C)CC2)ccc1OCc1ccc(F)c(F)c1.Cl` [Example 23, 1-[4-(3,4-difluorobenzyloxy)-3-isobutylbenzoyl]-4-isobutylpiperazine hydrochloride], in the data set on stress ulcer formation, the “WIS: ulcer formation inhibitory rate” value came to 83%. Besides, in the data set with Helicobacter pyroli, the MIC turned out to be 25 µg/mL.

As to `CC(C)Cc1cc(C(=O)N2CCN(CC(C)C)CC2)ccc1OCc1ccc(F)cc1.O=C(O)C(=O)O` [Example 25, 1-[4-(4-fluorobenzyloxy)-3-isobutylbenzoyl]-4-isobutylpiperazine oxalate], the “WIS: ulcer formation inhibitory rate” value in the data set with stress ulcer formation was determined as 70%. In addition, the MIC with Helicobacter pyroli was 12.5 µg/mL.

Regarding `CC(C)Cc1cc(C(=O)N2CCN(CC(C)C)CC2)ccc1OCc1ccc(F)c(F)c1` [Example 26, 1-[4-(3,4-difluorobenzyloxy)-3-isobutylbenzoyl]-4-isobutylpiperazine], in the data set with stress ulcer formation, the “WIS: ulcer formation inhibitory rate” value is 63%. Moreover, the MIC with Helicobacter pyroli came out at 12.5 µg/mL (≈ 28.1 µM).

Consider `CC(C)Cc1cc(C(=O)N2CCN(CC(C)C)CC2)ccc1OCc1ccc(F)cc1F` [Example 27, 1-[4-(2,4-difluorobenzyloxy)-3-isobutylbenzoyl]-4-isobutylpiperazine], for which the “WIS: ulcer formation inhibitory rate” value in the data set on stress ulcer formation was determined as 60%. Besides, the MIC in the data set with Helicobacter pyroli worked out at 6.25 µg/mL (≈ 14.1 µM).
